From patent US20180148418A1, “AMIDO-SUBSTITUTED CYCLOHEXANE DERIVATIVES” (Bayer Pharma Aktiengesellschaft, priority 2015, published 2018)

System: wildtype Wnt signaling cascade
Assay: HEK293 TOP assay (Super TopFlash luciferase reporter, Wnt-3a stimulated)
Assay type: cell-based
Conditions: HEK293 TOP reporter cells, Wnt3a at EC50, 16 hours
Method in brief: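 Compound series (50 μM down to 15 nM, 3.16-fold) diluted from DMSO 50-fold into CAFTY buffer, pH 7.4, 2 mM Ca^2+, 0.01% BSA, applied to Wnt-3a-stimulated HEK293 TopFlash and FOP reporter lines in parallel. Cells seeded 10000/well 24 h before; luciferase signal measured.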

SMILES | IC50 (Homo sapiens, HEK293, 16 h) [µM] | IC50 [µM]
COCC(C)NC(=O)c1nc[nH]c1C(=O)N[C@H]1CC[C@@]2(CCN(c3ccc(F)cc3Cl)C2=O)CC1 (mixture of isomers) [Example 164, N^5-[(trans)-2-(2-chloro-4-fluorophenyl)-1-oxo-2-azaspiro[4.5]dec-8-yl]-N^4-(1-methoxypropan-2-yl)-1H-imidazole-4,5-dicarboxamide] | 0.0092 | –
Cc1c(C(C)N(C)C)cnc2c(C(=O)N[C@H]3CC[C@H](C(=O)Nc4ccc(F)cc4Cl)CC3)cnn12 (single isomer, unassigned) [Example 56, N-{trans-4-[(2-chloro-4-fluorophenyl)carbamoyl]cyclohexyl}-6-[1-(dimethylamino)ethyl]-7-methylpyrazolo[1,5-a]pyrimidine-3-carboxamide] | – | 0.99
Cc1c(C(C)N(C)C)cnc2c(C(=O)N[C@H]3CC[C@H](C(=O)Nc4ccc(F)cc4Cl)CC3)cnn12 (single isomer, unassigned) [Example 57, N-{trans-4-[(2-chloro-4-fluorophenyl)carbamoyl]cyclohexyl}-6-[1-(dimethylamino)ethyl]-7-methylpyrazolo[1,5-a]pyrimidine-3-carboxamide] | – | 0.31
CNC(=O)c1nc[nH]c1C(=O)N[C@H]1CC[C@H](C(=O)Nc2cc(F)c(F)cc2Cl)CC1 [Example 3, N^5-{trans-4-[(2-chloro-4,5-difluorophenyl)carbamoyl]cyclohexyl}-N^4-methyl-1H-imidazole-4,5-dicarboxamide] | 0.013 | –
O=C(NCCN1CCCCC1)c1nc[nH]c1C(=O)N[C@H]1CC[C@H](C(=O)Nc2cc(F)c(F)cc2Cl)CC1 [Example 4, N^5-{trans-4-[(2-chloro-4,5-difluorophenyl)carbamoyl]cyclohexyl}-N^4-[2-(piperidin-1-yl)ethyl]-1H-imidazole-4,5-dicarboxamide] | 0.01 | –
CNC(=O)c1nc[nH]c1C(=O)N[C@H]1CC[C@H](C(=O)Nc2cc(OC)c(OC)cc2Cl)CC1 [Example 5, N^5-{trans-4-[(2-chloro-4,5-dimethoxyphenyl)carbamoyl]cyclohexyl}-N^4-methyl-1H-imidazole-4,5-dicarboxamide] | 0.19 | –
CNC(=O)c1nc[nH]c1C(=O)N[C@H]1CC[C@H](C(=O)Nc2c(F)cc(F)cc2Cl)CC1 [Example 6, N^5-{trans-4-[(2-chloro-4,6-difluorophenyl)carbamoyl]cyclohexyl}-N^4-methyl-1H-imidazole-4,5-dicarboxamide] | 0.055 | –
CNC(=O)c1nc[nH]c1C(=O)N[C@H]1CC[C@H](C(=O)Nc2ccc(F)cc2Br)CC1 [Example 7, N^5-{trans-4-[(2-bromo-4-fluorophenyl)carbamoyl]cyclohexyl}-N^4-methyl-1H-imidazole-4,5-dicarboxamide] | 0.03 | –
CNC(=O)c1nc[nH]c1C(=O)N[C@H]1CC[C@H](C(=O)Nc2ccc(F)cc2)CC1 [Example 8, N^5-{trans-4-[(4-fluorophenyl)carbamoyl]cyclohexyl}-N^4-methyl-1H-imidazole-4,5-dicarboxamide] | 2.1 | –
CNC(=O)c1nc[nH]c1C(=O)N[C@H]1CC[C@H](C(=O)Nc2ccc(C)cc2Cl)CC1 [Example 9, N^5-{trans-4-[(2-chloro-4-methylphenyl)carbamoyl]cyclohexyl}-N^4-methyl-1H-imidazole-4,5-dicarboxamide] | 0.18 | –
CNC(=O)c1[nH]cnc1C(=O)NC1CCC(C(=O)Nc2ccc(F)cc2Cl)CC1OC (stereo not drawn) [Example 36, N^4-{(1α,2β,4β)-4-[(2-chloro-4-fluorophenyl)carbamoyl]-2-methoxycyclohexyl}-N^5-methyl-1H-imidazole-4,5-dicarboxamide] | – | 4.9
CNC(=O)c1[nH]cnc1C(=O)NC1CCC(C(=O)Nc2ccc(F)cc2Cl)CC1OC (stereo not drawn) [Example 37, N^4-{(1α,2β,4β)-4-[(2-chloro-4-fluorophenyl)carbamoyl]-2-methoxycyclohexyl}-N^5-methyl-1H-imidazole-4,5-dicarboxamide] | – | 43
O=C(NCCC1CC1)c1nc[nH]c1C(=O)N[C@H]1CC[C@H](C(=O)Nc2cc(N3CCOCC3)ccc2Cl)CC1 [Example 93, N^5-(trans-4-{[2-chloro-5-(morpholin-4-yl)phenyl]carbamoyl}cyclohexyl)-N^4-(2-cyclopropylethyl)-1H-imidazole-4,5-dicarboxamide] | 1.5 | –
CC(C)(O)CNC(=O)c1nc[nH]c1C(=O)N[C@H]1CC[C@H](C(=O)Nc2cc(N3CCOCC3)ccc2Cl)CC1 [Example 94, N^5-(trans-4-{[2-chloro-5-(morpholin-4-yl)phenyl]carbamoyl}cyclohexyl)-N^4-(2-hydroxy-2-methylpropyl)-1H-imidazole-4,5-dicarboxamide] | 0.61 | –
O=C(NCC(F)(F)F)c1nc[nH]c1C(=O)N[C@H]1CC[C@H](C(=O)Nc2cc(N3CCOCC3)ccc2Cl)CC1 [Example 95, N^5-(trans-4-{[2-chloro-5-(morpholin-4-yl)phenyl]carbamoyl}cyclohexyl)-N^4-(2,2,2-trifluoroethyl)-1H-imidazole-4,5-dicarboxamide] | 2.1 | –
CNC(=O)c1nc[nH]c1C(=O)N[C@H]1CC[C@H](C(=O)Nc2cnccc2Cl)CC1 [Example 96, N^5-{trans-4-[(4-chloropyridin-3-yl)carbamoyl]cyclohexyl}-N^4-methyl-1H-imidazole-4,5-dicarboxamide] | 0.022 | –

SMILES | IC50 (Homo sapiens, HEK293, 16 h) [µM] | IC50 [µM]
O=C(NCC1CCCO1)c1nc[nH]c1C(=O)N[C@H]1CC[C@H](C(=O)Nc2cnccc2Cl)CC1 (stereo partly drawn) [Example 97, N^5-{trans-4-[(4-chloropyridin-3-yl)carbamoyl]cyclohexyl}-N^4-(tetrahydrofuran-2-ylmethyl)-1H-imidazole-4,5-dicarboxamide] | 0.034 | –
COC(C)(C)CNC(=O)c1nc[nH]c1C(=O)N[C@H]1CC[C@H](C(=O)Nc2cnccc2Cl)CC1 [Example 98, N^5-{trans-4-[(4-chloropyridin-3-yl)carbamoyl]cyclohexyl}-N^4-(2-methoxy-2-methylpropyl)-1H-imidazole-4,5-dicarboxamide] | 0.57 | –
COCC(C)NC(=O)c1nc[nH]c1C(=O)N[C@H]1CC[C@H](C(=O)Nc2cnccc2Cl)CC1 (stereo partly drawn) [Example 99, N^5-{trans-4-[(4-chloropyridin-3-yl)carbamoyl]cyclohexyl}-N^4-(1-methoxypropan-2-yl)-1H-imidazole-4,5-dicarboxamide] | 0.051 | –
Cc1cc(NC(=O)[C@H]2CC[C@H](NC(=O)c3[nH]cnc3C(=O)NCC(C)(C)O)CC2)c(Cl)cc1F [Example 100, N^5-{trans-4-[(2-chloro-4-fluoro-5-methylphenyl)carbamoyl]cyclohexyl}-N^4-(2-hydroxy-2-methylpropyl)-1H-imidazole-4,5-dicarboxamide] | 0.2 | –
COC(C)(C)CNC(=O)c1nc[nH]c1C(=O)N[C@H]1CC[C@H](C(=O)Nc2cc(C)c(F)cc2Cl)CC1 [Example 101, N^5-{trans-4-[(2-chloro-4-fluoro-5-methylphenyl)carbamoyl]cyclohexyl}-N^4-(2-methoxy-2-methylpropyl)-1H-imidazole-4,5-dicarboxamide] | 0.36 | –
Cc1cc(C)n2ncc(C(=O)N[C@H]3CC[C@H](C(=O)Nc4ccncc4Cl)CC3)c2n1 [Example 102, N-{trans-4-[(3-chloropyridin-4-yl)carbamoyl]cyclohexyl}-5,7-dimethylpyrazolo[1,5-a]pyrimidine-3-carboxamide] | 0.12 | –
O=C(N[C@H]1CC[C@H](C(=O)Nc2ccncc2Cl)CC1)c1cnc2cccnn12 [Example 103, N-{trans-4-[(3-chloropyridin-4-yl)carbamoyl]cyclohexyl}imidazo[1,2-b]pyridazine-3-carboxamide] | 0.41 | –
Cc1cnc2c(C(=O)N[C@H]3CC[C@H](C(=O)Nc4ccncc4Cl)CC3)cnn2c1 [Example 104, N-{trans-4-[(3-chloropyridin-4-yl)carbamoyl]cyclohexyl}-6-methyl pyrazolo[1,5-a]pyrimidine-3-carboxamide] | 0.088 | –
O=C(N[C@H]1CC[C@H](C(=O)Nc2ccncc2Cl)CC1)c1cnn2cccnc12 [Example 105, N-{trans-4-[(3-chloropyridin-4-yl)carbamoyl]cyclohexyl}pyrazolo[1,5-a]pyrimidine-3-carboxamide] | 0.24 | –
CCOC(=O)c1cnc2c(C(=O)N[C@H]3CC[C@H](C(=O)Nc4ccc(F)cc4Cl)CC3)cnn2c1 [Example 106, ethyl 3-({trans-4-[(2-chloro-4-fluorophenyl)carbamoyl]cyclohexyl}carbamoyl)pyrazolo[1,5-a]pyrimidine-6-carboxylate] | 0.4 | –
O=C(N[C@H]1CC[C@H](C(=O)Nc2ccc(F)cc2Cl)CC1)c1cnn2ccc(N3CCOCC3)nc12 [Example 107, N-{trans-4-[(2-chloro-4-fluorophenyl)carbamoyl]cyclohexyl}-5-(morpholin-4-yl)pyrazolo[1,5-a]pyrimidine-3-carboxamide] | 0.88 | –
O=C(N[C@H]1CC[C@H](C(=O)Nc2ccc(F)cc2Cl)CC1)c1cnn2ccc(N3CCCC3)nc12 [Example 108] | 0.18 | –
CN1CCN(c2ccn3ncc(C(=O)N[C@H]4CC[C@H](C(=O)Nc5ccc(F)cc5Cl)CC4)c3n2)CC1 [Example 109] | 3 | –
COCc1cc(C)n2ncc(C(=O)N[C@H]3CC[C@H](C(=O)Nc4ccc(F)cc4Cl)CC3)c2n1 [Example 110, N-{trans-4-[(2-chloro-4-fluorophenyl)carbamoyl]cyclohexyl}-5-(methoxymethyl)-7-methylpyrazolo[1,5-a]pyrimidine-3-carboxamide] | 0.27 | –
COCc1cc(C)nc2c(C(=O)N[C@H]3CC[C@H](C(=O)Nc4ccc(F)cc4Cl)CC3)cnn12 [Example 111, N-{trans-4-[(2-chloro-4-fluorophenyl)carbamoyl]cyclohexyl}-7-(methoxymethyl)-5-methylpyrazolo[1,5-a]pyrimidine-3-carboxamide] | 0.073 | –
COCc1cc(C)n2ncc(C(=O)N[C@H]3CC[C@H](C(=O)Nc4c(F)cc(F)cc4Cl)CC3)c2n1 [Example 112, N-{trans-4-[(2-chloro-4,6-difluorophenyl)carbamoyl]cyclohexyl}-5-(methoxymethyl)-7-methylpyrazolo[1,5-a]pyrimidine-3-carboxamide] | 0.19 | –
